The values that follow come from PMC10974317, “Anti-COVID Drugs (MMV COVID Box) as Leishmanicidal Agents: Unveiling New Therapeutic Horizons” (Pharmaceuticals, 2024).

For assay [1], the system named is Leishmania amazonensis promastigotes. Put plainly: Leishmanicidal activity against promastigotes (alamarBlue assay). Format: cell-based. The settings on record: 72 h, mean ± SD, read-out: inhibitory concentration 50 (IC50), promastigote stage, L. amazonensis. How it is done: (§1) Initial screening of the 160 compounds against Leishmania promastigotes was performed at 10 μM following MMV foundation instructions provided with the box. The compound activity was assessed using the modified alamarBlue® assay (Invitrogen/Life Technologies, Madrid, Spain) with 10^6 promastigotes per well. DMSO concentration never surpassed 0.1% (v/v) to avoid impacting parasite proliferation or morphology. Subsequently, an EnSpire multimode plate reader (PerkinElmer, MA, USA) was used to measure fluorescence after 72 h. […] Serial dilutions were made in 96-well plates and incubated with parasites for 72 h after adding alamarBlue®. IC50 values were calculated using SigmaPlot 14.0 (Systat Software Inc., Chicago, IL, USA) based on fluorescence measurements. Each concentration was tested in duplicate across three independent experiments.
A general note: The colour change of resazurin is a common sign of viable cells or microbes.

For assay [2], the system named is Leishmania donovani promastigotes. The assay is described as above. The settings on record: 72 h; for IC50: Leishmania donovani, read-out: inhibitory concentration 50 (IC50), promastigote stage, L. donovani. Format: cell-based. How it is done: as §1
Assay [3] relates to L. amazonensis intracellular amastigotes. Put plainly: Intracellular amastigote activity (parasite rescue and transformation assay). The assay is classed as cell-based, Leishmania amazonensis. The settings on record: for Selectivity index (CC50/IC50): CC50 murine macrophages / IC50 L. amazonensis amastigotes. On the procedure:
Intracellular amastigote activity against L. amazonensis was measured through a parasite rescue and transformation assay for the purchased compounds. Macrophages were seeded in a 96-well plate and infected with promastigotes at the metacyclic stage for subsequent compound treatment. After incubation, macrophages were lysed, and the medium and conditions were changed to stimulate amastigote transformation. The results were assessed using alamarBlue® [28].

In assay [4] the test system is Leishmania amazonensis promastigotes. Put plainly: Mitochondrial membrane potential disruption (JC-1). The assay is classed as cell-based. The settings on record: 24 h with IC90, vs negative control. On the procedure:
JC-1 Mitochondrial Membrane Potential kit (Cayman Chemical, Ann Arbor, MI, USA) was employed following the manufacturer’s instructions. […] Three independent experiments were conducted for this assay.

The mark [5] stands for this setting: promastigotes, alamarBlue, mean ± SD, w/a: without activity.
Where [6] appears, read: Leishmania amazonensis, Macrophage, in Mus musculus, intracellular amastigotes in murine macrophages, read-out: IC50, amastigote stage, L. amazonensis.

SMILES strings stand for the structures. Read-outs that look alike come from different tables or passages of the source.

In the case of `C[C@@H]1CCCN1CCc1cc2cc(-c3ccc(C#N)cc3)ccc2o1` [ABT239], the IC50 in assay [1] is 1310 ± 70 nM; in assay [1] (Leishmania amazonensis), under 1400 nM; in assay [2] (setting [5]) it was 1680 ± 250 nM; in assay [3] (setting [6]) it was 490 ± 130 nM. Moreover, the “Selectivity index (CC50/IC50)” value in assay [3] was 46.
With `CC(C)N1CCN(c2ccc(OCC3COC(Cn4cncn4)(c4ccc(Cl)cc4Cl)O3)cc2)CC1` (stereo not drawn) [Terconazole], the IC50 is 3820 ± 1040 nM in assay [1] (Leishmania amazonensis); 11600 ± 1380 nM in assay [2] (setting [5]); under 2400 nM in assay [3] (setting [6]); 2380 ± 400 nM in assay [3] (intracellular amastigotes in murine macrophages, read-out: IC50, amastigote stage, L. amazonensis). The “Selectivity index (CC50/IC50)” value in assay [3] is recorded as 19. In addition, the “change in mitochondrial membrane potential (ΔΨm)” value (shortened to “change … (ΔΨm)”) in assay [4] is “significant decrease”.
For `CO[C@@H]1[C@H](N(C)C(=O)c2ccccc2)C[C@H]2O[C@]1(C)n1c3ccccc3c3c4c(c5c6ccccc6n2c5c31)C(=O)NC4` [Midostaurin], the “activity against the amastigote form” value in assay [3] (at 10 μM) was “no activity”.
Consider `C=CCNc1nc(NCC=C)nc(N2CCN(C(c3ccc(F)cc3)c3ccc(F)cc3)CC2)n1` [Almitrine], for which the IC50 in assay [1] is 1190 ± 20 nM; in assay [1] (Leishmania amazonensis), under 1400 nM; in assay [3] (setting [6]), under 2400 nM; in assay [3] (read-out: IC50, amastigote stage, L. amazonensis, intracellular amastigotes in murine macrophages), 2180 ± 470 nM. The “inhibitory concentration 50 (IC50), promastigote stage, L. donovani” value in assay [2] (setting [5]) was “w/a at 100”. The “change … (ΔΨm)” value in assay [4] is recorded as “significant decrease”.
With `CCCCCCCCCCCCCCCCOP(=O)([O-])OCC[N+](C)(C)C` [Miltefosine], in assay [2], the IC50 came out at 72200 ± 3060 nM. Also, the “Selectivity index (CC50/IC50)” value in assay [3] stood at 23.
For the compound `CC(C)C[C@H](NC(=O)[C@H](Cc1ccccc1)NC(=O)c1cnccn1)B(O)O` [Bortezomib], the IC50 was 420 ± 80 nM in assay [1] (Leishmania amazonensis); 37200 ± 2510 nM in assay [2] (setting [5]); 40 ± 10 nM in assay [3] (Leishmania amazonensis, Macrophage, in Mus musculus, read-out: IC50, amastigote stage, L. amazonensis, intracellular amastigotes in murine macrophages). Moreover, the “change … (ΔΨm)” value in assay [4] is “significant decrease”.
